# From US20200282101A1, “BIODEGRADABLE TUMOR SEALANT” (MediGear International Corporation, priority 2015, published 2020)
# Experiments:
# [1] = Liquid crystal structure analysis by small-angle X-ray scattering (SAXS); format: physicochemical; conditions: atmospheric pressure
# Description: The liquid crystal structure of the aforementioned gelatinous composition was analyzed by small-angle X-ray scattering (SAXS) using the NANO Viewer nanoscale X-ray structural evaluation system (Rigaku). As a result of measuring the aforementioned gelatinous composition packed into pinhole slits under atmospheric pressure, a graph of SAXS intensity distribution (FIG. 3(1)) and peak search results (FIG. 3(2)) were obtained.
# The liquid crystal structures of the aforementioned gelatinous compositions were analyzed by small-angle X-ray scattering (SAXS) using the SmartLab high-luminance in-plane X-ray diffraction system (Rigaku). The aforementioned gelatinous composition packed into pinhole slits were measured under atmospheric pressure.
# Liquid crystal structure of the aforementioned emulsion was analyzed by small-angle X-ray scattering (SAXS) using the NANO Viewer nanoscale X-ray structural evaluation system (Rigaku). As a result of introducing the emulsion into a capillary tube under atmospheric pressure and measuring with the system at reduced pressure (although the sample per se was at atmospheric pressure), a graph of SAXS intensity distribution (FIG. 5(1)) and peak search results (FIG. 5(2)) were obtained.
# The aforementioned emulsion was measured by SAXS in the same manner as Example 4. […]
# [2] = Viscosity measurement of the synthesized compound; format: physicochemical; conditions: shear rate: 92 1/s
# From the text: The results of measuring the ^1H-NMR spectrum and viscosity of the resulting compound were as shown below.
# Viscosity: 0.48 Pa·s (shear rate: 92 1/s)
# [3] = Formation of gelatinous composition on mixing with physiological saline; format: physicochemical; conditions: 50% by weight or more of physiological saline, separated saline removed
# Description: An aqueous medium in the form of a 50% by weight or more of physiological saline was added to mono-O-(5,9,13-trimethyltetradeca-4-enoyl)glycerol followed by carrying out a mixing procedure and removing the separated physiological saline.
# Mono-O-(5,9,13-trimethyltetradeca-4-enoyl)glycerol and a contrast agent in the form of Lipiodol were mixed at mixing ratios of 10:5, 70:30, 10:3, 80:20, 10:2, 90:10 and. 10:1. An aqueous medium in the form of 50% by weight or more of physiological saline was added to each mixture followed by carrying out a mixing procedure and removing the separated physiological saline to respectively obtain mixtures.
# [4] = Stability of liquid crystal gelatinous composition in human serum; format: in vitro ADME
# Description: Approximately 100 μL of mono-O-(5,9,13-trimethyltetradeca-4-enoyl)glycerol or approximately 100 μL each of mixed solutions of mono-O-(5,9,13-trimethyltetradeca-4-enoyl)glycerol and Lipiodol at a weight ratio of 10:1, 10:2 or 10:3 were respectively added to vials containing 2 mL of human serum (Human OTC Serum, Access Biologicals). After gently shaking each vial to cause the formation of a gelatinous composition, the vials were allowed to stand undisturbed in a water bath at 37° C. followed by observing immediately thereafter, 10 hours later and 24 hours later.
# FIG. 13 depicts captured images indicating changes over time in samples consisting of approximately 100 μL of mono-O-(5,9,13-trimethyltetradeca-4-enoyl)glycerol.
smiles,measurement,setting,value
"CC(=CCCC(=O)OCC(O)CO)CCCC(C)CCCC(C)C (stereo not drawn) [Example 1, Mono-O-(5,9,13-trimethyltetradeca-4-enoyl)glycerol]",Liquid crystal structure (SAXS),[1],inverse hexagonal liquid crystal
same,Viscosity,[2],0.48 Pa·s
same,Appearance of composition after mixing with physiological saline,[3],"cloudy to colorless, clear gel"
same,Change of human serum with passage of time,"[4]; approx. 100 μL in 2 mL human serum, 37° C., up to 24 hours",gradually became cloudy
same,Change of gelatinous composition in distilled water instead of human serum,"[4]; distilled water, within 24 hours",no change in the gelatinous composition
same,Observation in human serum 10 hours after addition,"[4]; human serum, 37° C., 10 hours",Cloudiness can be seen to have progressed
same,Observation in human serum 24 hours after addition,"[4]; human serum, 37° C., 24 hours","Cloudiness had progressed even further, although the gelatinous composition remained"
same,Main eluted components by TLC analysis,"[4]; human serum, 37° C., 24 hours after addition","mono-O-(5,9,13-trimethyltetradeca-4-enoyl)glycerol and (5,9,13-trimethyl-4-tetradecanoic)carboxylate obtained as a result of hydrolysis"
same,Observation in human serum immediately after addition,"[4]; human serum, 37° C., immediately after addition",a gelatinous composition formed and the human serum remained clear
